pIC50: −log10 of the molar value. Like-named read-outs stand apart in the source and are kept apart here.
Assays:
MOLM-13 cells (FLT3 ITD) = assay: in vitro standard cytotoxicity (MTS, 72 h), MEN and Gilt single agent or combination, Combination Index; format: cell-based, human; conditions: MTS (Table 2); for pIC50: Homo sapiens, read-out: IC50 dose level (single agent cytotoxicity)
Procedure: (§1) In an in vitro standard cytotoxicity experiment, two AML cell lines (MV4-11 [FLT3 ITD] and MOLM-13 [FLT3 ITD]) were treated for 72 hours with MEN and Gilt (a Type I inhibitor) either as a single agent or in combination.
(§2) Human acute myeloid leukemia cell lines MV4-11 and MOLM-13 were obtained from DSMZ, Braunschweig, Germany (ACC102 and ACC554). […] All cells were incubated at 37° C., 5% CO2, 80% relative humidity.

MV4-11 cells (FLT3 ITD) = assay: as above; format: cell-based, human; conditions: for pIC50: Homo sapiens, read-out: IC50 dose level (single agent cytotoxicity)
Procedure: as §1, §2

[1] = test system: MV4-11 (FLT3 ITD) cell line xenograft; assay: in vivo AML xenograft study, tumor volume inhibition; conditions: MV4-11 xenograft, per os from day 19, MEN 25 mg/kg Q1 × 14 d, Gilteritinib 3 mg/kg Q1 × 22 d, combination each as above
Procedure: For the AML xenograft model, 10×10^6 MV4-11 cells were re-suspended in 0.2 ml of BME type III (Trevigen) at 5.6 mg/ml+DPBS (1:1) and then injected subcutaneously into the right flank of 6-8 weeks old female SCID mice (Charles River, Calco, Italy).
After injection, mice were maintained in micro isolator cages under continuously monitored environmental conditions. Drinking water and specific sterilized diet (VRF1, Charles River) were supplied ad libitum. […] Twice a week, tumor growth and body weight were evaluated and recorded.
(§3) The outcome evaluation was carried out as follows: tumor volumes were measured by caliper, and tumor masses were calculated using the following formula: [length (mm)×width^2 (mm)×d]/2, assuming density, d=1 mg/mm^3 for tumor tissue (Teicher B. Totowa, 1997).
The treatment efficacy was assessed as TVI % in treated versus control mice, using the following formula: TVI %=(1−Volume Average of treated tumor mass/Volume Average of control tumor)*100.
Mice were sacrificed when tumors reached a volume of around 10% of total body weight or when mice's body weight decreased by more than 20% compared to control animals for 7 days or more. Animals were euthanized with carbon dioxide exposure according to the standard procedures (Annex IV of Directive 2010/63/EU; 2010).
GraphPad Prism software (GraphPAD Software Inc., California) was used for statistical analysis. Statistical differences were considered to be significant at p-value<0.05 using the two-tailed Mann-Whitney rank test.

[2] = test system: KG-1 cells (FLT wildtype); assay: in vitro standard cytotoxicity (MTS, 72 h), MEN and Gilt single agent or combination, Combination Index; format: cell-based, human; conditions: for pIC50: Homo sapiens
Excerpt: Human acute myeloid leukemia cell line KG-1 was obtained from DSMZ, Braunschweig, Germany (ACC14).

[3] = test system: MOLM-13 (FLT3 ITD) cell line xenograft; assay: in vivo AML xenograft study, tumor volume inhibition; conditions: MOLM-13 xenograft, per os from day 15, MEN 25 mg/kg Q1 × 14 d, Gilteritinib 3 mg/kg Q1 × 14 d, combination each as above
Procedure: For the AML xenograft model, 10×10^6 MOLM-13 cells were re-suspended in 0.2 ml of BME type III (Trevigen) at 5.6 mg/ml+DPBS (1:1) and then injected subcutaneously into the right flank of 6-8 weeks old female CD-1 mice (Charles River, Calco, Italy).
After injection, mice were maintained in micro isolator cages under continuously monitored environmental conditions. Drinking water and specific sterilized diet (VRF1, Charles River) were supplied ad libitum. Environmental conditions, as well as the procedures for housing and handling the animals, complied with the UKCCCR guideline (Workman P et al., 2010) and the European Convention for the protection of vertebrate animals used for experimental and other scientific purposes (Directive 2010/63/EU; 2010). Twice a week, tumor growth and body weight were evaluated and recorded.
as §3
The treatment efficacy was assessed as TVI % in treated versus control mice, using the following formula: TVI %=(1−Volume Average of treated tumor mass/Volume Average of control tumor)*100. […]

MOLM-13 cells [4] = test system: MOLM-13 cells
Procedure: (§4) The synergistic effect of the combination was measured according to the Combination Index calculation (Chou T C, 2006).
(§5) MOLM-13 cells were grown in RPMI with 20% FBS and incubated at 37° C., 5% CO2, 80% relative humidity.
(§6) 20907) were dissolved in DMSO, divided into aliquots and stored at −80° C. until use. Stock solutions were added at appropriate concentration in culture medium before the addition to cells.
(§7) For cytotoxicity studies cells were seeded at appropriate density (50.000 cells/well) prior to addition of MEN and Quiz at day 0. […] After 72 hours, CellTiter 96 Aqueous One Solution Reagent (MTS) (Promega, Madison. WI, USA) was added to assess the cell viability. Fluorescence was measured 4 h later using Tecan Infinite M200 (Tecan Trading AG, Switzerland), recording absorbance at 490 nm. Quantitative measurement of synergism/antagonism was evaluated with Combination Index (CI) on the Fraction affected (Fa) using CompuSyn (ComboSyn, Inc. Paramus, NJ, USA) (Chou T C, 2006).

MOLM-13 cells [5] = assay: in vitro standard cytotoxicity (MTS, 72 h), MEN and Quizartinib single agent or combination, Combination Index; conditions: for pIC50: Homo sapiens, MOLM-13, 72 h, read-out: IC50 (single agent cytotoxicity)
Procedure: as §4, §5, §6, §7

[6] = MOLM-13 cells, 72 h, MTS (Table 5)

Compound | pIC50 (MOLM-13 cells (FLT3 ITD)) | IC10 dose level (single agent cytotoxicity) (MOLM-13 cells (FLT3 ITD)) [µM] | IC25 dose level (single agent cytotoxicity) (MOLM-13 cells (FLT3 ITD)) [µM] | IC75 dose level (single agent cytotoxicity) (MOLM-13 cells (FLT3 ITD)) [µM] | IC10 dose level (single agent cytotoxicity) (MV4-11 cells (FLT3 ITD)) [µM] | IC25 dose level (single agent cytotoxicity) (MV4-11 cells (FLT3 ITD)) [µM] | IC75 dose level (single agent cytotoxicity) (MV4-11 cells (FLT3 ITD)) [µM] | pIC50 (MV4-11 cells (FLT3 ITD)) | TVI % Day 33 [1] [%] | TVI % Day 40 [1] [%] | IC10 (single agent cytotoxicity) [2] [µM] | IC25 (single agent cytotoxicity) [2] [µM] | IC75 (single agent cytotoxicity) [2] [µM] | pIC50 [2] | TVI % Day 29 [3] [%] | pIC50 (MOLM-13 cells [5]) | other results
CCc1nc(C(N)=O)c(Nc2ccc(N3CCC(N4CCN(C)CC4)CC3)c(OC)c2)nc1NC1CCOCC1 [Gilteritinib] | 7.96 | 0.0014 | 0.0040 | 0.0320 | 0.0022 | 0.0042 | 0.0140 | 8.10 | 84.1 | 87.6 | 0.03534 | 0.1502 | 2.7120 | 6.20 | 60.1 | – | –
CC(C)(C)c1cc(NC(=O)Nc2ccc(-c3cn4c(n3)sc3cc(OCCN5CCOCC5)ccc34)cc2)no1 [QUIZ, Quizartinib] | – | – | – | – | – | – | – | – | – | – | – | – | – | – | – | 9.02 | IC10 (single agent cytotoxicity) (MOLM-13 cells [4]): 0.000374 µM; IC25 (single agent cytotoxicity) (MOLM-13 cells [4]): 0.000595 µM; IC75 (single agent cytotoxicity) (MOLM-13 cells [4]): 0.001504 µM
CC(C)n1c(C2CCNCC2)nc2c([N+](=O)[O-])c(Br)c(Br)cc21 [MEN, 5,6-dibromo-4-nitro-2-(piperidin-4-yl)-1-(propan-2-yl)-1H-1,3-benzodiazole] | 6.29 | 0.087 | 0.21 | 1.23 | 0.151 | 0.293 | 1.103 | 6.24 | 57.2 | 53.1 | 0.05748 | 0.203 | 2.530 | 6.14 | 38.8 | 6.29 | IC10 (single agent cytotoxicity) (MOLM-13 cells [5]; [6]): 0.08729 µM; IC25 (single agent cytotoxicity) (MOLM-13 cells [5]; [6]): 0.3222 µM; IC75 (single agent cytotoxicity) (MOLM-13 cells [5]; [6]): 1.234 µM
